Data taken from patent publication US7259002B2, “Polynucleotide encoding a novel acyl coenzyme A, monoacylglycerol acyltransferase-3 (MGAT3), and uses thereof” (Bristol-Myers Squibb Company, priority 2003, dated 2007).

Legend:
Assay type in all cases: biochemical
recombinant human MGAT3 = target: T1, recombinant human MGAT3 (Homo sapiens, UniProt Q86VF5); assay: Substrate concentration titration and substrate specificity in the MGAT enzyme assay; conditions: for optimal substrate concentration: 10 μg membrane fractions, 10 min at 37° C.; for substrate optimum for acyl-CoAs: acyl-CoAs at 50 μM, 200 μM sn-2-[3H]monooleoylglycerol tracer
T1 construct: predicted to contain the entire open reading frame, was chosen for further study; made in house; host or cells: Spodoptera frugiperda Sf9 insect cells (baculovirus, Bac-to-Bac); 100,000 x g membrane fractions
T1 sequence (Q86VF5 1-341): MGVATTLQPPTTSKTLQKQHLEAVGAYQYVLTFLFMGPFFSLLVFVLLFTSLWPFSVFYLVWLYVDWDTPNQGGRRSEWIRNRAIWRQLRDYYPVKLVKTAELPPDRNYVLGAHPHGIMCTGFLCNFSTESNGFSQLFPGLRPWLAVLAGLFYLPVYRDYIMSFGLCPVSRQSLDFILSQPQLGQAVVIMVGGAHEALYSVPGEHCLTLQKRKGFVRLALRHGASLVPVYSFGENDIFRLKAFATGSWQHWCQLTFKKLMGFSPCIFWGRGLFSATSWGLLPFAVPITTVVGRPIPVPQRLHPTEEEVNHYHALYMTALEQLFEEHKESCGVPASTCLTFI
Description: Sf9 cells were setup and infected with either wild type or recombinant MGAT3 viruses as in FIG. 4. After 2 days of infection, the cells were harvested, membrane fractions were prepared and aliquots of membranes were subjected to MGAT enzyme assays with various concentrations of substrates. For A, 200 μM sn-2-monooleoylglycerol and various amounts of [14C]oleoyl coenzyme A (20,000 dpm/nmol) and for B, 50 μM [14C]oleoyl coenzyme A (20,000 dpm/nmol) and various amounts of sn-2-monooleoylglycerol were incubated with 10 μg membrane fractions for 10 min at 37° C. Lipid bands corresponding to TAG and DAG were cut from TLC sheets and counted with scintillation counter. Activities were corrected values of recombinant membranes deducted by values of wild type membranes. Duplicated assays were conducted and the standard deviations were smaller than 10% of the mean.
Sf9 cells were setup and infected either with wild type, recombinant MGAT3 or with DGAT2 viruses as in FIG. 4. Aliquots of membrane fractions (10 μg) were subjected to MGAT assays to determine A) MAG stereoisomer specificity and B) preference of fatty acyl-CoAs. In A, 50 μM [14C]oleoyl coenzyme A (20,000 dpm/nmol) and 200 μM of sn-1-monooleoyglycerol (1-MAG), sn-2-monooleoyglycerol (2-MAG), or […] (3-MAG); and in B, 200 μM sn-2-[3H]monooleoylglycerol (20,000 dpm/nmol) and different acyl-CoAs at 50 μM were incubated with 10 μg membrane fractions at 37° C. for 10 min. C2, acetyl-CoA; M, malonyl-CoA; C4:0, butyryl-CoA; C12:0, lauroyl-CoA; C16:0, palmitoyl-CoA; C18:0, stearoyl-CoA; C20:0, arachidoyl-CoA; C18:1, oleoyl-CoA; C18:2, linoleoyl-CoA; C20:4, arachidonoyl-CoA.
MGAT activities were assayed for 5-10 min at 37° C. in a final volume of 200 μl according to a protocol modified from Coleman (Coleman, R. A. (1992) Methods Enzymol. 209:98-104). Each reaction contained 10 μg of membrane proteins in Assay Buffer (100 mM Tris-HCl, pH7.5, 5 mM MgCl2, 1.25 mg/ml BSA, 250 mM sucrose, 800 μM phophatidylcholine liposomes). Generally, 50 μM of acyl coenzyme A and 200 μM sn-2-monoacylglycerol (delivered in acetone, final acetone concentration <2%) were used. Reactions were started by adding protein and terminated by adding 4 ml chloroform/methanol (2/1, v/v). The extracted lipids were dried, separated by thin layer chromatography (TLC) with hexane/ethyl ether/acetic acid (85/15/0.5, v/v/v).
Identities of triacylglycerol (TAG), diacylglycerol (DAG), monoacylglycerol (MAG), free fatty acid (FFA) and other lipids were verified with lipid standards (Sigma) after staining with iodine vapor. The specific enzyme activities were traced by measuring the incorporation of [14C]oleoyl-CoA (20,000 dpm/nmol) or sn-2-[3H] monooleolyglycerol (20,000 dpm/nmol). Chromatograms were also analyzed with STORM PhosphoImager.

[1] = MGAT enzyme assay (TLC, scintillation counting) of membranes from Sf9 cells expressing the recombinant enzyme; conditions: 50 μM [14C]oleoyl coenzyme A
Description: Sf9 cells were setup and infected with wild type or recombinant MGAT3 viruses as in FIG. 4. Membrane extracts were prepared from the cells with various post infection times. Aliquots of membrane fractions were either subjected to A) immunoblot analysis with anti-FLAG IgG; or to B) TLC enzyme assays. For substrates, 200 μM sn-2-monooleoylglycerol and 50 μM [14C]oleoyl coenzyme A (20,000 dpm/nmol) were incubated with 10 μg membrane fractions for 6 min at 37° C. After TLC separation, the DAG and the TAG bands were cut from TLC sheets and subjected to scintillation counting. The activities were expressed as nmol/min/mg protein. Values were averages of duplicated determinations and the standard deviations were smaller than 10% of the mean.
The predicted coding sequence of human MGAT3 was fused with an NH2-terminal FLAG epitope (MGDYKDDDDG, (SEQ ID NO:21) epitope underlined) and expressed in Spodoptera frugiperda (Sf9) insect cells using Bac-to-Bac™ kit (Life Technologies) according to manufacturer's instructions. Recombinant FLAG-human-DGAT2 was expressed in the same manner as a control. Generally, cells were infected with viruses (MOI>3) for 2 days. After harvest, cells were washed with PBS, and then homogenized with a probe sonicator in Homogenization Buffer (10 mM Tris-HCl, pH 7.4, 250 mM sucrose, 1× Protease Inhibitor Cocktail [Roche]). Membrane fractions (100,000×g pellets) were stored at −80° C. until use for enzymatic assays. For immunoblot analysis, aliquots of 2 μg of membrane proteins were loaded on SDS-PAGE and probed with an anti-FLAG M2 IgG (Sigma).
MGAT activities were assayed for 5-10 min at 37° C. in a final volume of 200 μl according to a protocol modified from Coleman (Coleman, R. A. (1992) Methods Enzymol. 209:98-104). […]
Identities of triacylglycerol (TAG), diacylglycerol (DAG), monoacylglycerol (MAG), free fatty acid (FFA) and other lipids were verified with lipid standards (Sigma) after staining with iodine vapor. […] Chromatograms were also analyzed with STORM PhosphoImager.

[2] = DGAT activity: exogenous DAG assayed directly with recombinant membranes (TLC); conditions: Sf9 membranes, [14C]oleoyl-CoA tracer
[3] = Sf9 cell membranes, 200 μM sn-2-monooleoylglycerol, 6 min at 37° C., highest value of time course

With `CCCCCCCC/C=C\CCCCCCCC(=O)OC(CO)CO` [2-monooleoylglycerol, sn-2-monooleoylglycerol] the optimal substrate concentration (recombinant human MGAT3) was 200 µM and the “MAG stereoisomer specificity (DAG synthesis)” value (recombinant human MGAT3; 200 μM MAG, 50 μM [14C]oleoyl coenzyme A) was “prefers 2-MAG as the substrate”.

For `CCCCCCCC/C=C\CCCCCCCC(=O)SCCNC(=O)CCNC(=O)[C@H](O)C(C)(C)COP(=O)(O)OP(=O)(O)OC[C@H]1O[C@@H](n2cnc3c(N)ncnc32)[C@H](O)[C@@H]1OP(=O)(O)O` [oleoyl-CoA], the optimal substrate concentration (recombinant human MGAT3) was 50 µM and the “substrate optimum for acyl-CoAs” value (recombinant human MGAT3) was “best substrates”.

With `CCCCCCCCCCCCCCCC(=O)SCCNC(=O)CCNC(=O)[C@H](O)C(C)(C)COP(=O)(O)OP(=O)(O)OC[C@H]1O[C@@H](n2cnc3c(N)ncnc32)[C@H](O)[C@@H]1OP(=O)(O)O` [palmitoyl-CoA] the “substrate optimum for acyl-CoAs” value (recombinant human MGAT3) was “best substrates”.

B1: MGAT3: monoacylglycerol acyltransferase-3, 341 amino acid protein of SEQ ID NO:2 (protein, listed as Homo Sapiens)
chain: T1 sequence (Q86VF5 1-341)
In the case of B1, the “specific activity for DAG” value [1, 3] is reported as 22.8 nmol/min/mg, the “specific activity for TAG” value [1, 3] is reported as 9.3 nmol/min/mg and the “acylation of exogenous DAG to TAG (DGAT activity)” value [2] is reported as “able to acylate DAG to form TAG directly”.

B2: DGAT2: recombinant human diacylglycerol acyltransferase 2 expressed in the same manner as a control (protein, listed as Homo Sapiens)
chain: MKTLIAAYSGVLRGERQAEADRSQRSHGGPALSREGSGRWGTGSSILSALQDLFSVTWLNRSKVEKQLQVISVLQWVLSFLVLGVACSAILMYIFCTDCWLIAVLYFTWLVFDWNTPKKGGRRSQWVRNWAVWRYFRDYFPIQLVKTHNLLTTRNYIFGYHPHGIMGLGAFCNFSTEATEVSKKFPGIRPYLATLAGNFRMPVLREYLMSGGICPVSRDTIDYLLSKNGSGNAIIIVVGGAAESLSSMPGKNAVTLRNRKGFVKLALRHGADLVPIYSFGENEVYKQVIFEEGSWGRWVQKKFQKYIGFAPCIFHGRGLFSSDTWGLVPYSKPITTVVGEPITIPKLEHPTQQDIDLYHTMYMEALVKLFDKHKTKFGLPETEVLEVN
modifications: FLAG tag
notes: recombinant human diacylglycerol acyltransferase 2 expressed in the same manner as a control
In the case of B2, the “TAG synthesis from MAG stereoisomers” value ([1]; Sf9 membranes, 1-MAG, 2-MAG or 3-MAG at 200 μM) is reported as “able to synthesize similar amount of TAG using three different MAG stereoisomers”.
